# Positions of bridges follow the written chain, without caps; N, C: chain ends. Non-standard residues stand in square brackets, D forms with d. Residues, ends and D or L forms follow the SMILES beside them. ξ: configuration not given here. *: point of attachment. Ala(1H-tetrazol-5-yl) = N[C@@H](Cc1nnn[nH]1)C(=O)O; Phe(4-CONH2) = NC(=O)c1ccc(C[C@H](N)C(=O)O)cc1; Phe(4-COOH) = N[C@@H](Cc1ccc(C(=O)O)cc1)C(=O)O; Bip = N[C@@H](Cc1ccc(-c2ccccc2)cc1)C(=O)O; Ala(cPr) = N[C@@H](CC1CC1)C(=O)O; NMeF = CN[C@@H](Cc1ccccc1)C(=O)O; NMeL = CN[C@@H](CC(C)C)C(=O)O; ξR = N=C(N)NCCCC(N)C(=O)O; Carboxymethyl = O=C(O)C*; NMeA = CN[C@@H](C)C(=O)O; Nle = CCCC[C@H](N)C(=O)O; Orn = NCCC[C@H](N)C(=O)O; Dap = NC[C@H](N)C(=O)O; Sar = CNCC(=O)O
# Molecular target: T1, human PD-1 (Jurkat-PD-1 cells) / PE-labeled human PD-L1-Ig (Homo sapiens, UniProt Q15116)
# T1 construct: expressed in transfected cells; host or cells: Jurkat cell line over-expressing human PD-1
# T1 sequence (Q15116 25-288): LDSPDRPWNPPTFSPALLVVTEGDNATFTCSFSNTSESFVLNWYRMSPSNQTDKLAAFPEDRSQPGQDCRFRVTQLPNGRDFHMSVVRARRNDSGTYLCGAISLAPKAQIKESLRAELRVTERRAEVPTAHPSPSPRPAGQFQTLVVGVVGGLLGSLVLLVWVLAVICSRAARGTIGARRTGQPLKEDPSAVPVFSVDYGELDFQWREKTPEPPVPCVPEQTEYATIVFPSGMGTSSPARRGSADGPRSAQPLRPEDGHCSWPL
# Test: Jurkat-PD-1 Cell Binding High-Content Screening Assay (CBA); Jurkat hPD1-PDL1 assay
# Conditions: Jurkat cell line over-expressing human PD-1; PE-labeled PD-L1-Ig 20 nM final; compound incubated 2 hours at 37° C.; read-out: Jurkat HPD1-PDL1 IC50
# Outline: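 Jurkat cells overexpressing human PD-1 (8×10^3 per well, DMEM with 10% FCS) were preincubated with compound for 2 hours at 37° C. PE-labeled human PD-L1-Ig was then added at 20 nM final. Binding was quantified by high-content imaging.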
row,SMILES,IC50 [nM]
1,CC(C)C[C@@H]1NC(=O)[C@H](Cc2c[nH]c3ccccc23)NC(=O)[C@H](CC(=O)O)NC(=O)[C@H](Cc2ccc(O)cc2)NC(=O)[C@H](Cc2ccc(C(N)=O)cc2)NC(=O)CSC[C@@H](C(=O)NCC(N)=O)NC(=O)[C@H](CO)NC(=O)[C@H](C(C)C)NC(=O)[C@H](CC(C)C)NC(=O)[C@H](CC(N)=O)NC(=O)CN(C)C(=O)[C@H](C)N(C)C(=O)[C@H](C(C)C)NC(=O)[C@H](Cc2ccc(-c3ccccc3)cc2)NC1=O [Example 1174] ({CH2CO}-[Phe(4-CONH2)]YDWL[Bip]V[NMeA][Sar]NLVSCG-NH2; thioether N-14),970
2,CCCC[C@@H]1NC(=O)[C@H](CCCNC(=N)N)NC(=O)[C@H](Cc2ccccc2)N(C)C(=O)[C@H](C)N(C)C(=O)[C@H](CCCNC(=N)N)NC(=O)[C@H](Cc2ccc(-c3ccccc3)cc2)NC(=O)[C@H](C(C)C)NC(=O)[C@H](Cc2c[nH]c3ccccc23)NC(=O)[C@H](CC(=O)O)NC(=O)[C@H](Cc2ccc(O)cc2)NC(=O)[C@H](Cc2ccccc2)NC(=O)CSC[C@@H](C(=O)NCC(N)=O)NC(=O)[C@H](CO)NC(=O)[C@H](C(C)C)NC1=O [Example 1067] ({CH2CO}-FYDWV[Bip]R[NMeA][NMeF]R[Nle]VSCG-NH2; thioether N-14),160
3,CC(C)C[C@@H]1NC(=O)[C@H](Cc2c[nH]c3ccccc23)NC(=O)[C@H](CC(=O)O)NC(=O)[C@H](Cc2ccc(C(=O)O)cc2)NC(=O)[C@H](Cc2ccc(OCC(=O)O)cc2)NC(=O)CSC[C@@H](C(=O)N[C@@H](C)C(N)=O)NC(=O)[C@H](CO)NC(=O)[C@H](C(C)C)NC(=O)[C@H](CC(C)C)NC(=O)[C@H](CC(N)=O)NC(=O)[C@H]2CCCN2C(=O)[C@H](C)N(C)C(=O)[C@H](C(C)C)NC(=O)[C@H](Cc2ccc(-c3ccccc3)cc2)NC1=O [Example 1430] ({CH2CO}-Y(Carboxymethyl)[Phe(4-COOH)]DWL[Bip]V[NMeA][dP]NLVSCA-NH2; thioether N-14),80
4,CC(C)C[C@@H]1NC(=O)[C@H](Cc2c[nH]c3ccccc23)NC(=O)[C@H](CC(=O)O)NC(=O)[C@H](Cc2ccc(O)cc2)NC(=O)[C@H](Cc2ccccc2)NC(=O)CSC[C@@H](C(=O)NCC(N)=O)NC(=O)[C@H](CO)NC(=O)[C@H](C(C)C)NC(=O)[C@H](CC(C)C)NC(=O)[C@H](CCCCN)NC(=O)CN(C)C(=O)[C@H](C)N(C)C(=O)[C@H](C(C)C)NC(=O)[C@H](Cc2ccc(-c3ccccc3)cc2)NC1=O [Example 1051] ({CH2CO}-FYDWL[Bip]V[NMeA][Sar]KLVSCG-NH2; thioether N-14),110
5,CC(C)C[C@@H]1NC(=O)[C@H](Cc2c[nH]c3ccccc23)NC(=O)[C@H](CC(=O)O)NC(=O)[C@H](Cc2ccc(O)cc2)NC(=O)[C@H](Cc2ccccc2)NC(=O)CSC[C@@H](C(=O)N[C@@H](C)C(N)=O)NC(=O)[C@H](CO)NC(=O)[C@H](C(C)C)NC(=O)[C@H](CC2CC2)NC(=O)[C@H](CC(N)=O)NC(=O)CN(C)C(=O)[C@H](C)N(C)C(=O)[C@H](C(C)C)NC(=O)[C@H](Cc2ccc(-c3ccccc3)cc2)NC1=O [Example 1144] ({CH2CO}-FYDWL[Bip]V[NMeA][Sar]N[Ala(cPr)]VSCA-NH2; thioether N-14),630
6,CC(C)C[C@@H]1NC(=O)C(CCCNC(=N)N)NC(=O)[C@H](Cc2ccccc2)N(C)C(=O)[C@H](C)N(C)C(=O)[C@H](CCCNC(=N)N)NC(=O)[C@H](Cc2ccc(-c3ccccc3)cc2)NC(=O)[C@H](C(C)C)NC(=O)[C@H](Cc2c[nH]c3ccccc23)NC(=O)[C@H](CC(=O)O)NC(=O)[C@H](Cc2ccc(O)cc2)NC(=O)[C@H](Cc2ccccc2)NC(=O)CSC[C@@H](C(=O)NCC(N)=O)NC(=O)[C@H](CO)NC(=O)[C@H](CCC(=O)O)NC1=O (stereo partly drawn) [Example 1218] ({CH2CO}-FYDWV[Bip]R[NMeA][NMeF][ξR]LESCG-NH2; thioether N-14),230
7,CC(C)C[C@@H]1NC(=O)[C@H](Cc2c[nH]c3ccccc23)NC(=O)[C@H](CC(=O)O)NC(=O)[C@H](Cc2ccc(O)cc2)NC(=O)[C@H](Cc2ccccc2)NC(=O)CSC[C@@H](C(=O)NCC(N)=O)NC(=O)[C@H](CO)NC(=O)[C@H](C(C)C)NC(=O)[C@H](CC(C)C)NC(=O)[C@H](CCC(=O)O)NC(=O)CN(C)C(=O)[C@H](C)N(C)C(=O)[C@H](C(C)C)NC(=O)[C@H](Cc2ccc(-c3ccccc3)cc2)NC1=O [Example 1071] ({CH2CO}-FYDWL[Bip]V[NMeA][Sar]ELVSCG-NH2; thioether N-14),190
8,CC(C)C[C@@H]1NC(=O)[C@H](Cc2c[nH]c3ccccc23)NC(=O)[C@H](Cc2nn[nH]n2)NC(=O)[C@H](Cc2ccc(O)cc2)NC(=O)[C@H](Cc2ccccc2)NC(=O)CSC[C@@H](C(=O)N[C@@H](C)C(N)=O)NC(=O)[C@H](CO)NC(=O)[C@H](C(C)C)NC(=O)[C@H](CC(C)C)NC(=O)[C@H](CC(N)=O)NC(=O)[C@H]2CCCN2C(=O)[C@H](C)N(C)C(=O)[C@H](C(C)C)NC(=O)[C@H](Cc2ccc(-c3ccccc3)cc2)NC1=O [Example 1428] ({CH2CO}-FY[Ala(1H-tetrazol-5-yl)]WL[Bip]V[NMeA][dP]NLVSCA-NH2; thioether N-14),370
9,CC(C)C[C@@H]1NC(=O)[C@H](Cc2c[nH]c3ccccc23)NC(=O)[C@H](CC(=O)O)NC(=O)[C@H](Cc2ccc(O)cc2)NC(=O)[C@H](Cc2ccccc2)NC(=O)CSC[C@@H](C(=O)NCC(N)=O)NC(=O)[C@H]([C@@H](C)O)NC(=O)[C@H](C(C)C)NC(=O)[C@H](CC(C)C)NC(=O)[C@H](CC(N)=O)NC(=O)[C@H]2CCCN2C(=O)[C@H](CN)NC(=O)[C@H](C(C)C)NC(=O)[C@H](Cc2ccc(-c3ccccc3)cc2)NC1=O [Example 1404] ({CH2CO}-FYDWL[Bip]V[Dap][dP]NLVTCG-NH2; thioether N-14),390
10,CC(C)C[C@@H]1NC(=O)[C@H](CCCN)NC(=O)[C@H](Cc2ccccc2)N(C)C(=O)[C@H](C)N(C)C(=O)[C@H](CCC(=O)O)NC(=O)[C@H](Cc2ccc(-c3ccccc3)cc2)NC(=O)[C@H](C(C)C)NC(=O)[C@H](Cc2c[nH]c3ccccc23)NC(=O)[C@H](CC(=O)O)NC(=O)[C@H](Cc2ccc(O)cc2)NC(=O)[C@H](Cc2ccccc2)NC(=O)CSC[C@@H](C(=O)N[C@@H](CCC(=O)O)C(N)=O)NC(=O)[C@H]([C@@H](C)O)NC(=O)[C@H](C(C)C)NC1=O [Example 1350] ({CH2CO}-FYDWV[Bip]E[NMeA][NMeF][Orn]LVTCE-NH2; thioether N-14),210
11,CC(C)C[C@@H]1NC(=O)[C@H](CCCNC(=N)N)NC(=O)[C@H](CC(C)C)N(C)C(=O)[C@H](C)N(C)C(=O)[C@H](CCCNC(=N)N)NC(=O)[C@H](Cc2ccc(-c3ccccc3)cc2)NC(=O)[C@H](C(C)C)NC(=O)[C@H](Cc2c[nH]c3ccccc23)NC(=O)[C@H](CC(=O)O)NC(=O)[C@H](Cc2ccc(O)cc2)NC(=O)[C@H](Cc2ccccc2)NC(=O)CSC[C@@H](C(=O)NCC(N)=O)NC(=O)[C@H](CO)NC(=O)[C@H](C(C)C)NC1=O [Example 1281] ({CH2CO}-FYDWV[Bip]R[NMeA][NMeL]RLVSCG-NH2; thioether N-14),460
12,CC(C)C[C@@H]1NC(=O)[C@H](CCCNC(=N)N)NC(=O)[C@H](Cc2ccccc2)N(C)C(=O)[C@H](C)N(C)C(=O)[C@H](CCCNC(=N)N)NC(=O)[C@H](Cc2ccc(-c3ccccc3)cc2)NC(=O)[C@H](C(C)C)NC(=O)[C@H](Cc2c[nH]c3ccccc23)NC(=O)[C@H](CC(=O)O)NC(=O)[C@H](Cc2ccc(O)cc2)NC(=O)[C@H](Cc2ccccc2)NC(=O)CSC[C@@H](C(=O)N[C@@H](C)C(N)=O)NC(=O)[C@H]([C@@H](C)O)NC(=O)[C@H](C(C)C)NC1=O [Example 1358] ({CH2CO}-FYDWV[Bip]R[NMeA][NMeF]RLVTCA-NH2; thioether N-14),400
